Where “and” joins values, the source holds several entries; their conditions need not be identical. Equal entries are not always repeated.
Columns and labels:
[1] = LNP characterization of base editor LNP preparations (DLS diameter, PDI, encapsulation efficiency); assay type: physicochemical
Procedure: (§1) Lipid nanoparticle components are dissolved in 100% ethanol at specified lipid component molar ratios. mRNA encoding an adenine base editor and a chemically-modified sgRNA is dissolved at a mass ratio of 1:1 in 10 mM citrate, 100 mM NaCl, pH 4.0, resulting in a concentration of NA cargo of approximately 0.22 mg/mL. LNP preparations are formulated with molar ratios of either 50% Ionizable Lipid: 38.5% Cholesterol: 1.5% PEG2000-DMG: 10% DSPC or 47.5% Ionizable Lipid: 40% Cholesterol: 2.5% PEG2000-DMG: 10% DSPC both at a total lipid to NA molar ratio of 6.
(§2) LNP preparations are formed by microfluidic mixing of the lipid and NA solutions using a Precision Nanosystems NanoAssemblr Ignite Instrument, according to the manufacturer's protocol. A 3:1 ratio of aqueous to organic solvent is maintained during mixing using differential flow rates. After mixing, LNP preparations are collected, diluted in PBS (approximately 2:1 v/v), and further buffer exchange is conducted using dialysis in PBS at 4° C. for 8 to 24 hours against a 20 kDa filter. After this initial dialysis, each individual LNP preparation is characterized via dynamic light scattering (DLS) to measure size and polydispersity. pKa of a subpopulation of LNP preparations is measured via TNS assay. After dialysis, LNP preparations are sterile filtered using 0.22 micron sterile filter and stored at 4° C. for further use. In some embodiments, LNP preparations may be concentrated using 100 kDa Amicon filters per manufacturer's protocol.
DLS—LNP preparation hydrodynamic diameter and polydispersity index (PDI) is measured using high throughput dynamic light scattering (DLS) (DynaPro plate reader II, Wyatt). LNP preparations are diluted 1×PBS to an appropriate concentration and analyzed.
Concentration of NA is determined by Qubit microRNA kit (for siRNA) or HS RNA kit (for mRNA) per manufacturer's instructions. Encapsulation efficiency is determined by measuring unlysed and lysed LNPs.

[2] = system: ALAS1 target site; test: In vivo base editing with ABE mRNA and sgRNA targeting ALAS1; parameters: species or system Balb/c mice; details: for Liver Editing A->G (%): 4 days after dosing
Procedure: as §1, §2
Male Balb/C mice aged approximately 8-12 weeks are used in the experiments described herein. Each mouse is temporarily restrained, and LNP preparations are administered IV via tail vein injection. Age-matched mice are also used to administer vehicle (1×PBS) via tail vein injection as a control. Four to six days post-dose, tissues including liver, spleen, heart and muscle are collected (only liver and muscle (quardracept) are reported). Genomic DNA is isolated and fragmented and adapter-ligated using the Nextera DNA Flex Library Prep Kit (Illumina) using the 96-well plate Nextera indexing primers (Illumina), according to the manufacturer's instructions. Library size and concentration is confirmed by Fragment Analyzer (Agilent) and sent to Novogene for whole genome sequencing using an Illumina HiSeq.
For base editing, mRNA encoding an adenine base editor (ABE) and a guide RNA (sgRNA) targeting ALAS1 at 1:1 (mass ratio) are coencapsulated in LNP preparations as described herein. LNP preparations are administrated into Balb/c mice through tail vein injections at concentrations ranging from 0.05 to 3.0 mg/kg total RNA. At 4 days after dosing, mice are euthanized and liver, spleen and bone barrow are harvested. Base editing is determined by performing targeted deep sequencing analysis at the ALAS1 target site using extracted genomic DNA.

[3] = LNP preparation characterization (encapsulation efficiency, DLS size and polydispersity), barcoded screen LNPs; assay type: physicochemical; details: LNP 47.5% ionizable lipid: 40% cholesterol: 2.5% PEG-2000 DMG: 10% DPSC, N/P 4.5-6; for AVG PDI / AVG Z Dia (nm): DLS
Procedure: Lipid nanoparticle components were dissolved in 100% ethanol at specified lipid component molar ratios. Nucleic acid (NA) cargo was dissolved in 10 mM citrate, 100 mM NaCl, pH 4.0, resulting in a concentration of NA cargo of approximately 0.22 mg/mL. In some embodiments, NA cargos included both a functional NA and a reporter barcode mixed at mass ratios of 1:10 to 10:1 functional NA to barcode. As described herein, a NA can be a siRNA, an anti-sense, an expressing DNA, or mRNA.
LNP preparations were prepared with 47.5% Ionizable Lipid (e.g., a compound provided herein): 40% cholesterol: 2.5% PEG-2000 DMG: 10% DPSC and an N/P ratio range of 4.5-6. LNP preparations were formed by microfluidic mixing of the lipid and NA solutions using Precision Nanosystems NanoAssemblr Spark or Benchtop series Instruments, according to the manufacturer's protocol.
A ratio of aqueous to organic solvent of approximately 2:1 or 3:1 was maintained during mixing using differential flow rates. After mixing, LNP preparations were collected, diluted in phosphate buffer saline (PBS) or Tris-buffered saline (TBS) (approximately 1:1 v/v). Further buffer exchange was conducted using dialysis in PBS or TBS at 4° C. for 4 to 24 hours against a 20 kDa filter. After this initial dialysis, each individual LNP preparation may be characterized via dynamic light scattering (DLS) to measure the size (e.g., diameter) and polydispersity. LNP preparations falling within specific diameter and polydispersity ranges were pooled, and further dialyzed against PBS or TBS at 4° C. for 1 to 4 hours against a 100 kDa dialysis cassette. After the second dialysis, LNP preparations were sterile filtered using 0.22 μm filter and stored at 4° C. for further use.

[4] = Table C LNPs, formulation ratio 47.5:40:2.5:10, ABE mRNA/ALAS1 sgRNA
[5] = Table D LNPs, formulation ratio 50:38.5:1.5:10, ABE mRNA/ALAS1 sgRNA
[6] = dose 3 MPK IV, formulation ratio 50:38.5:1.5:10, quadricep muscle
[7] = dose 3 MPK IV, formulation ratio 50:38.5:1.5:10, liver

Structure (SMILES): C=CCCCC(CCCC=C)COC(=O)CCCCCC(=O)OCC(COC(=O)CCCCCC(=O)OCC(CCCC=C)CCCC=C)COC(=O)CCCN1CCCC1 [Compound (18), 1-(2-{[(7-Oxo-7-{[2-(pent-4-en-1-yl)hept-6-en-1-yl]oxy}heptanoyl)oxy]methyl}-3-{[4-(pyrrolidin-1-yl)butanoyl]oxy}propyl) 7-[2-(pent-4-en-1-yl)hept-6-en-1-yl] heptanedioate]
- Diameter (nm) [1, 4]: 106 nm
- EE (%) [1, 4]: 93.9%
- PDI (%) [1, 4]: 16.9%
- Diameter (nm) [1, 5]: 149.3 nm
- EE (%) [1, 5]: 88.58%
- PDI (%) [1, 5]: 13.1%
- Liver Editing A->G (%) ([2]; dose 0.1 MPK IV, formulation ratio 47.5:40:2.5:10, liver): 0.99%
- Quadrecept Editing A->G (%) ([2]; dose 0.1 MPK IV, formulation ratio 47.5:40:2.5:10, quadricep muscle): 0.29%
- Quadrecept Editing A->G (%) [2, 6]: 2.5%
- AVG EE(%) [3]: 98.2%
- AVG PDI [3]: 0.07
- AVG Z Dia (nm) [3]: 138.63 nm

Structure (SMILES): CCCCCCCC(CCCCCCC)OC(=O)CCCCCC(=O)OCC(COC(=O)CCCCCC(=O)OC(CCCCCCC)CCCCCCC)COC(=O)CCCN1CCCC1 [Compound (21), O1-[2-[[7-(1-heptyloctoxy)-7-oxo-heptanoyl]oxymethyl]-3-(4-pyrrolidin-1-ylbutanoyloxy)propyl] O7-(1-heptyloctyl) heptanedioate]
- Diameter (nm) [1, 4]: 62.08 nm
- EE (%) [1, 4]: 98.19%
- PDI (%) [1, 4]: 6%
- Liver Editing A->G (%) ([2]; dose 0.05 MPK IV, formulation ratio 47.5:40:2.5:10, liver): 0.5%
- AVG EE(%) [3]: 95.1%
- AVG PDI [3]: 0.13
- AVG Z Dia (nm) [3]: 75.95 nm

Structure (SMILES): O=C(CCCCCCC(=O)OC(CCCCCC(F)(F)F)CCCCCC(F)(F)F)OCC(COC(=O)CCCCCCC(=O)OC(CCCCCC(F)(F)F)CCCCCC(F)(F)F)COC(=O)CCCN1CCCC1 [Compound (16), 1-(1,1,1,13,13,13-Hexafluorotridecan-7-yl)-8-{2-[({8-[(1,1,1,13,13,13-hexafluorotridecan-7-yl)oxy]-8-oxooctanoyl}oxy)methyl]-3-{[4-(pyrrolidin-1-yl)butanoyl]oxy}propyl} octanedioate]
- Diameter (nm) [1, 5]: 96.8 nm
- EE (%) [1, 5]: 96.3%
- PDI (%) [1, 5]: 13.5%
- Liver Editing A->G (%) [2, 7]: 72.41%
- Quadrecept Editing A->G (%) [2, 6]: 0.6%
- AVG EE(%) [3]: 64.3%
- AVG PDI [3]: 0.09
- AVG Z Dia (nm) [3]: 129.85 nm

Structure (SMILES): C=CCCCCCC(CCCCCC=C)OC(=O)CCCCCC(=O)OCC(COC(=O)CCCCCC(=O)OC(CCCCCC=C)CCCCCC=C)COC(=O)NCCN1CCCC1 [Compound (26), O1-[2-[[7-(1-hept-6-enyloct-7-enoxy)-7-oxo-heptanoyl]oxymethyl]-3-(2-pyrrolidin-1-ylethylcarbamoyloxy)propyl] O7-(1-hept-6-enyloct-7-enyl) heptanedioate]
- Diameter (nm) [1, 4]: 75.47 nm and 81.14 nm
- EE (%) [1, 4]: 99.1% and 99%
- PDI (%) [1, 4]: 1.2% and 9.4%
- Diameter (nm) [1, 5]: 79.5 nm
- EE (%) [1, 5]: 98.3%
- PDI (%) [1, 5]: 22.3%
- Liver Editing A->G (%) ([2]; dose 0.05 MPK IV, formulation ratio 50:38.5:1.5:10, liver): 0.41%
- Quadrecept Editing A->G (%) ([2]; dose 3 MPK IV, formulation ratio 47.5:40:2.5:10, quadricep muscle): 7.26%
- AVG EE(%) [3]: 93.4%
- AVG PDI [3]: 0.08
- AVG Z Dia (nm) [3]: 82.14 nm

Structure (SMILES): CCC/C=C\CCC(CC/C=C\CCC)OC(=O)CCCCCC(=O)OCC(COC(=O)CCCCCC(=O)OC(CC/C=C\CCC)CC/C=C\CCC)COC(=O)CCCN1CCCC1 [Compound (23), 1-{2-[({7-Oxo-7-[(4Z,11Z)-pentadeca-4,11-dien-8-yloxy]heptanoyl}oxy)methyl]-3-{[4-(pyrrolidin-1-yl)butanoyl]oxy}propyl} 7-(4Z,11Z)-pentadeca-4,11-dien-8-ylheptanedioate]
- Diameter (nm) [1, 5]: 72.6 nm
- EE (%) [1, 5]: 98.18%
- PDI (%) [1, 5]: 11.4%
- Liver Editing A->G (%) ([2]; dose 1.5 MPK IV, formulation ratio 50:38.5:1.5:10, liver): 80.09%
- Quadrecept Editing A->G (%) ([2]; dose 1.5 MPK IV, formulation ratio 50:38.5:1.5:10, quadricep muscle): 4.81%
- AVG EE(%) [3]: 85.8%
- AVG PDI [3]: 0.12
- AVG Z Dia (nm) [3]: 78.47 nm

Structure (SMILES): CC/C=C\CCCC(CCC/C=C\CC)OC(=O)CCCCC(=O)OCC(COC(=O)CCCCC(=O)OC(CCC/C=C\CC)CCC/C=C\CC)COC(=O)CCCN1CCCC1 [Compound (12), 1-{2-[({6-Oxo-6-[(3Z,12Z)-pentadeca-3,12-dien-8-yloxy]hexanoyl}oxy)methyl]-3-{[4-(pyrrolidin-1-yl)butanoyl]oxy}propyl}6-(3Z,12Z)-pentadeca-3,12-dien-8-yl hexanedioate]
- Diameter (nm) [1, 5]: 82.7 nm
- EE (%) [1, 5]: 72.57%
- PDI (%) [1, 5]: 17.4%
- Quadrecept Editing A->G (%) [2, 6]: 0.22%
- AVG EE(%) [3]: 63.6%
- AVG PDI [3]: 0.12
- AVG Z Dia (nm) [3]: 105.44 nm

Structure (SMILES): C=CCCCC(CCCC=C)OC(=O)CCCCCCC(=O)OCC(COC(=O)CCCCCCC(=O)OC(CCCC=C)CCCC=C)COC(=O)CCCN1CCCC1 [Compound (7), 1-[2-({[8-Oxo-8-(undeca-1,10-dien-6-yloxy)octanoyl]oxy}methyl)-3-{[4-(pyrrolidin-1-yl)butanoyl]oxy}propyl] 8-undeca-1,10-dien-6-yl octanedioate]
- Diameter (nm) [1, 5]: 121.2 nm
- EE (%) [1, 5]: 91.02%
- PDI (%) [1, 5]: 11.8%
- Quadrecept Editing A->G (%) [2, 6]: 0.87%
- AVG EE(%) [3]: 74.3%
- AVG Z Dia (nm) [3]: 85.54 nm

Structure (SMILES): C=CCCCCCC(CCCCCC=C)OC(=O)CCCCCCC(=O)OCC(COC(=O)CCCCCCC(=O)OC(CCCCCC=C)CCCCCC=C)COC(=O)CCCN1CCCC1 [Compound (10), 1-[2-({[8-Oxo-8-(pentadeca-1,14-dien-8-yloxy)octanoyl]oxy}methyl)-3-{[4-(pyrrolidin-1-yl)butanoyl]oxy}propyl] 8-pentadeca-1,14-dien-8-yl octanedioate]
- Diameter (nm) [1, 5]: 71.6 nm
- EE (%) [1, 5]: 98.66%
- PDI (%) [1, 5]: 11%
- Liver Editing A->G (%) [2, 7]: 75.62%
- Quadrecept Editing A->G (%) [2, 6]: 3.6%

Structure (SMILES): C=CCCCCCC(CCCCCC=C)OC(=O)CCCCC(=O)OCC(COC(=O)CCCCC(=O)OC(CCCCCC=C)CCCCCC=C)COC(=O)CCCN1CCCC1 [Compound (11), 1-[2-({[6-Oxo-6-(pentadeca-1,14-dien-8-yloxy)hexanoyl]oxy}methyl)-3-{[4-(pyrrolidin-1-yl)butanoyl]oxy}propyl]6-pentadeca-1,14-dien-8-yl hexanedioate]
- Diameter (nm) [1, 5]: 83.2 nm
- EE (%) [1, 5]: 74.33%
- PDI (%) [1, 5]: 18.7%
- Liver Editing A->G (%) [2, 7]: 17.19%
- Quadrecept Editing A->G (%) [2, 6]: 0.11%

Reference: patent US20260176283A1, “IONIZABLE LIPIDS WITH LINEAR HEAD GROUPS” (Beam Therapeutics Inc., priority 2023, published 2026)
